The values that follow come from patent US12263171B2, “7-, 8-, and 10-substituted amino triazolo quinazoline derivatives as adenosine receptor antagonists, pharmaceutical compositions and their use” (Merck Sharp & Dohme LLC, priority 2018, dated 2025).

As usually defined, the IC50 is the point on the concentration scale where inhibition reaches its midpoint. Read a low IC50 as higher potency.

For experiment [1], the target named is human A2a adenosine receptor (Homo sapiens (Human), UniProt P29274). The experiment can be described thus: A2a receptor affinity radioligand binding assay ([3H] SCH58261, membranes from HEK293 or CHO cells). As to conditions: for IC50: unstarred values: radioligand binding. The method, then:
The A2a receptor affinity binding assay measured the amount of binding of a tritiated ligand with high affinity for the A2a adenosine receptor to membranes made from HEK293 or CHO cells recombinantly expressing the human A2a adenosine receptor, in the presence of varying concentrations of a compound of the invention.
Measurement of A2a Binding Affinity Using Radioligand Binding
148 μL, (5 μg/mL) membranes (Perkin Elmer, Cat. No. RBHA2aM4001A) and 2 μL compounds of the invention to be tested (test compound) were transferred to individual wells of a 96-well polypropylene assay plate and incubated for 15 to 30 minutes at room temperature. [^3H] SCH58261 ((7-(2-phenylethyl)-5-amino-2-(2-furyl)-pyrazolo-[4,3-e]-1,2,4-triazolo[1,5-c]pyrimidine)) was diluted in assay buffer (50 mM Tris pH 7.4, 10 mM MgCl2, 0.005% Tween20) to a concentration of 4 nM and 50 μL transferred to each well of the assay plate. […] The assay plate was incubated at room temperature for 60 minutes with agitation. […] Filtering was achieved by aspirating the contents of the assay plate for 5 seconds, then washing and aspirating the contents three times with ice-cooled wash buffer (50 mM Tris-HCl pH 7.4, 150 mM NaCl) and allowing the vacuum manifold to dry the plate for 30 seconds. The filter plate was incubated for at least 1 hour at 55° C. and allowed to dry. The bottom of the filter plate was sealed with backing tape. 40 μL. […] The plate was incubated for at least 20 minutes, and then the amount of radioactivity remaining in each well was determined using a TopCown® (Perkin Elmer) scintillation counter. After normalization to total and non-specific binding, the percent effect at each compound concentration was calculated. The plot of percent effect versus the log of compound concentration was analyzed electronically using a 4-parameter logistic fit based on the Levenberg-Marquardt algorithm to generate IC50 values.

Experiment [2] concerns the target human A2b adenosine receptor (Homo sapiens (Human), UniProt P29275). The experiment can be described thus: A2b radioligand filtration binding assay (tritiated proprietary A2b antagonist, HEK293 membranes). As to conditions: for IC50: unstarred values: radioligand binding. The protocol: Measurement of A2b Binding Affinity
The reported affinity of the compounds of the invention for the human A2b adenosine receptor was determined experimentally using a radioligand filtration binding assay. This assay measures the amount of binding of a tritiated proprietary A2b receptor antagonist, in the presence and absence of a compound of the invention, to membranes made from HEK293 cells recombinantly expressing the human A2b adenosine receptor (Perkin Elmer, Cat. No. ES-013-C).
The filter plate was incubated for at least 1 hour at 55° C. and allowed to dry. The bottom of the filter plate was then sealed with backing tape. […] The plates were then incubated for at least 20 minutes, and then the amount of radioactivity remaining in each well was determined using a TopCount® (Perkin Elmer) scintillation counter. After normalization to total and non-specific binding, the percent effect at each compound concentration was calculated. The plot of percent effect versus the log of compound concentration was analyzed electronically using a 4-parameter logistic fit based on the Levenberg-Marquardt algorithm to generate IC50 values.

human A2a adenosine receptor, sequence (P29274 whole entry): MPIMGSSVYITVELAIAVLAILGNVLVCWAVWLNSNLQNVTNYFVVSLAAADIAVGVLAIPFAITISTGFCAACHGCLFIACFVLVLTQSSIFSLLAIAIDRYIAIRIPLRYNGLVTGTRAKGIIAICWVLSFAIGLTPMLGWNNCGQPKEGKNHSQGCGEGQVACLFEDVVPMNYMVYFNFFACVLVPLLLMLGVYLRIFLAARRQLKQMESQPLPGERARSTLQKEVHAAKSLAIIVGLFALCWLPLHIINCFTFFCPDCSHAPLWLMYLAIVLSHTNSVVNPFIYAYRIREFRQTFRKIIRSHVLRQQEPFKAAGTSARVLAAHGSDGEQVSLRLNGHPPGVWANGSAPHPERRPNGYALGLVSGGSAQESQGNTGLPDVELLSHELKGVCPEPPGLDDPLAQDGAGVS
human A2b adenosine receptor, sequence (P29275 whole entry): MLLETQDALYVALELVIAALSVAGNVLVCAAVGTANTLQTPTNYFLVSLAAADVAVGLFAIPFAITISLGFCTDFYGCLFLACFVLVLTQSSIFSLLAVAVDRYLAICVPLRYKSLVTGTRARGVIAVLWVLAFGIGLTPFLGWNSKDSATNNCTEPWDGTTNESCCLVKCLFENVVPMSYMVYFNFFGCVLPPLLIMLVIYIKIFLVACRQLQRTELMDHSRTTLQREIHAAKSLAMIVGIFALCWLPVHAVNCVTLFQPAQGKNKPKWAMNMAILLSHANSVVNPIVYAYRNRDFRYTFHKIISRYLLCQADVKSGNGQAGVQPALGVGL

On to `COc1cccc2c1nc(N)n1nc([C@H]3CCC4CCC3N4c3cnn(C)c3)nc21` (mixture of isomers) [Example 130A], for which the IC50 in experiment [1] is 5.8 nM; in experiment [2] it was 7020 nM.
The matching figures for `COc1cccc2c1nc(N)n1nc([C@@H]3CCC4CCC3N4c3cnn(C)c3)nc21` (mixture of isomers) [Example 130B]: 10.3 nM and 3520 nM.
The matching figures for `COc1cccc2c1nc(N)n1nc(C3CCC[C@@](O)(c4cnn(C)c4)C3)nc21` (mixture of isomers) [Example 134B]: 1 nM and 76.7 nM.
The matching figures for `COc1cccc2c1nc(N)n1nc([C@@H]3CCCN(c4cnn(C5CCOC5)c4)C3)nc21` (single isomer, unassigned) [Example 57A]: 0.4 nM and 70.5 nM.
For `COc1cccc2c1nc(N)n1nc([C@@H]3CCCN(c4cnn(C5CCOC5)c4)C3)nc21` (single isomer, unassigned) [Example 57B], the IC50 in experiment [1] turned out to be 0.3 nM; in experiment [2], 89.3 nM.
Taken in the same sequence, the figures for `COc1cccc2c1nc(N)n1nc([C@@H]3CCCN(c4cnn(C5CCCC5O)c4)C3)nc21` (single isomer, unassigned) [Example 58B] were 0.2 nM and 34.9 nM.
The matching figures for `COc1cccc2c1nc(N)n1nc([C@@H]3CCCN(c4cnn(C5CCCC5(C)O)c4)C3)nc21` (single isomer, unassigned) [Example 59A]: 0.4 nM and 6.3 nM.
The matching figures for `COc1cccc2c1nc(N)n1nc([C@@H]3CCCN(c4cnn(C5CCCC5(C)O)c4)C3)nc21` (single isomer, unassigned) [Example 59B]: 0.3 nM and 1.7 nM.
Consider `COc1cccc2c1nc(N)n1nc([C@@H]3CCCN(c4cnn(C5CCC5O)c4)C3)nc21` (single isomer, unassigned) [Example 60A], for which the IC50 was 1.8 nM in experiment [1] and 281 nM in experiment [2].
As to `COc1cccc2c1nc(N)n1nc([C@@H]3CCCN(c4cnn(C5CCC5O)c4)C3)nc21` (single isomer, unassigned) [Example 60B], the IC50 amounted to 2 nM in experiment [1] and 181 nM in experiment [2].
Taken in the same sequence, the figures for `COc1cccc2c1nc(N)n1nc([C@@H]3CCCN(c4cnn(C(C)C(C)(C)O)c4)C3)nc21` (single isomer, unassigned) [Example 61A] were 0.2 nM and 45.2 nM.
Taken in the same sequence, the figures for `COc1cccc2c1nc(N)n1nc([C@@H]3CCCN(c4cnn(C(C)C(C)(C)O)c4)C3)nc21` (single isomer, unassigned) [Example 61B] were 0.4 nM and 84 nM.
The matching figures for `COc1cccc2c1nc(N)n1nc(C3CCC[C@](O)(c4cnn(C)c4)C3)nc21` (single isomer, unassigned) [Example 134A]: 61.8 nM and 7750 nM.
As to `COc1cccc2c1nc(N)n1nc([C@@H]3CCC[C@](O)(c4cnn(CC(C)(C)O)c4)C3)nc21` (single isomer, unassigned) [Example 135, (1R, 3R or 1S,3S)-3-(5-amino-7-methoxy-[1,2,4]triazolo[1,5-c]quinazolin-2-yl)-1-(1-(2-hydroxy-2-methylpropyl)-1H-pyrazol-4-yl)cyclohexan-1-ol], the IC50 in experiment [1] worked out at 1.3 nM; in experiment [2] it was 168 nM.
Taken in the same sequence, the figures for `COc1cccc2c1nc(N)n1nc([C@H]3CCC[C@@H](c4cnn(C)c4)C3)nc21` (single isomer, unassigned) [Example 136C] were 1.2 nM and 157 nM.
Taken in the same sequence, the figures for `COc1cccc2c1nc(N)n1nc([C@@H]3CCC[C@H](c4cnn(CC(C)(C)O)c4)C3)nc21` (single isomer, unassigned) [Example 137, 1-(4-((1S,3R or 1R,3S)-3-(5-amino-7-methoxy-[1,2,4]triazolo[1,5-c]quinazolin-2-yl)cyclohexyl)-1H-pyrazol-1-yl)-2-methylpropan-2-ol] were 120 nM and 8650 nM.
Taken in the same sequence, the figures for `COc1cccc2c1nc(N)n1nc(C3CCCC(c4cnn(CC(C)(C)O)c4)C3)nc21` (single isomer, unassigned) [Example 138] were 3.4 nM and 425 nM.
In the case of `CCn1cc(N2C[C@@H](c3nc4c5cccc(OC)c5nc(N)n4n3)CC[C@H]2C)cn1` (single isomer, unassigned) [Example 140A], the values for the IC50 in experiment [1] and in experiment [2] were 66.8 nM and 5510 nM, respectively.
Taken in the same sequence, the figures for `COc1cccc2c1nc(N)n1nc(C3CCC(C)N(c4cnn(C5CC5)c4)C3)nc21` (single isomer, unassigned) [Example 141C] were 1 nM and 12 nM.
Regarding `COc1cccc2c1nc(N)n1nc(C3CCC(C)N(c4cnn(CC(C)(C)O)c4)C3)nc21` (single isomer, unassigned) [Example 143D], the IC50 stood at 0.5 nM in experiment [1] and 16.2 nM in experiment [2].
Taken in the same sequence, the figures for `COc1cccc2c1nc(N)n1nc(C3CCC(C)N(c4cnn(C(C)(C)CO)c4)C3)nc21` (single isomer, unassigned) [Example 146D] were 0.8 nM and 4.6 nM.
`COc1cccc2c1nc(N)n1nc([C@@H]3CC[C@H](C)N(c4cnn(C(C)C(C)(C)O)c4)C3)nc21` (single isomer, unassigned) [Example 147C]: the figures for the IC50 in experiment [1] and in experiment [2] were 3.9 nM and 779 nM, respectively.
The matching figures for `COc1cccc2c1nc(N)n1nc(C3CN(c4cnn(CC5(O)CCC5)c4)CC(F)(F)C3)nc21` (single isomer, unassigned) [Example 157B, (R or S)-1-((4-(5-(5-amino-7-methoxy-[1,2,4]triazolo[1,5-c]quinazolin-2-yl)-3,3-difluoropiperidin-1-yl)-1H-pyrazol-1-yl)methyl)cyclobutan-1-ol]: 0.7 nM and 512 nM.
Taken in the same sequence, the figures for `COc1cccc2c1nc(N)n1nc(C3CN(c4cn(CC(C)(C)O)nc4C)CC(F)(F)C3)nc21` (single isomer, unassigned) [Example 158B, (R or S)1-(4-(5-(5-amino-7-methoxy-[1,2,4]triazolo[1,5-c]quinazolin-2-yl)-3,3-difluoropiperidin-1-yl)-3-methyl-1H-pyrazol-1-yl)-2-methylpropan-2-ol] were 0.4 nM and 526 nM.
Consider `COc1cccc2c1nc(N)n1nc(C3CN(c4cnn(CC(C)(C)O)c4C)CC(F)(F)C3)nc21` (single isomer, unassigned) [Example 159B, (R or S)-1-(4-(5-(5-amino-7-methoxy-[1,2,4]triazolo[1,5-c]quinazolin-2-yl)-3,3-difluoropiperidin-1-yl)-5-methyl-1H-pyrazol-1-yl)-2-methylpropan-2-ol], for which the values for the IC50 in experiment [1] and in experiment [2] were 0.1 nM and 792 nM, respectively.
For the molecule `Cn1cc(N2CCCC(c3nc4c5cccc(O)c5nc(N)n4n3)C2)cn1` (single isomer, unassigned) [Example 165, (R or S)-5-amino-2-(1-(1-methyl-1H-pyrazol-4-yl)piperidin-3-yl)-[1,2,4]triazolo[1,5-c]quinazolin-7-ol], the “A2A binding % inh. @ 10000 nM” value in experiment [1] (@ 10000 nM, unstarred) is reported as 19% inh. @ 10000 nM. The “A2B binding % inh. @ 10000 nM” value in experiment [2] (@ 10000 nM, unstarred) was determined as 10% inh. @ 10000 nM.
In the case of `COc1ccc2c(nc(N)n3nc(C4CCCN(c5cnn(C)c5)C4)nc23)c1F` (single isomer, unassigned) [Example 166, (R or S)-7-fluoro-8-methoxy-2-(1-(1-methyl-1H-pyrazol-4-yl)piperidin-3-yl)-[1,2,4]triazolo[1,5-c]quinazolin-5-amine], the IC50 in experiment [1] was 18 nM; in experiment [2], 234 nM.
The matching figures for `Cc1ccc2c(nc(N)n3nc(C4CCCN(c5cnn(C)c5)C4)nc23)c1C` (single isomer, unassigned) [Example 167, (R or S)-7,8-dimethyl-2-(1-(1-methyl-1H-pyrazol-4-yl)piperidin-3-yl)-[1,2,4]triazolo[1,5-c]quinazolin-5-amine]: 14.1 nM and 117 nM.
The matching figures for `Cn1cc(N2CCCC(c3nc4c5ccc(F)cc5nc(N)n4n3)C2)cn1` (single isomer, unassigned) [Example 168, (R or S)-8-fluoro-2-(1-(1-methyl-1H-pyrazol-4-yl)piperidin-3-yl)-[1,2,4]triazolo[1,5-c]quinazolin-5-amine]: 17.4 nM and 150 nM.
